This note sets out measurements from ChEMBL document CHEMBL1201862, “PubChem BioAssay data set” (2004).

What all share (experiment): growth of human tumour cells (NCI), 48 h
Experiment [1] relates to RXF 393.
The test system of experiment [2] is HCT-15.
For experiment [3], the system named is CAKI-1.
Experiment [4] deals with A549.
In experiment [5] the test system is ACHN.
For experiment [6], the system named is MCF7.
Experiment [7] concerns OVCAR-8.
Experiment [8] deals with HL-60.
Experiment [9] has as its system OVCAR-3.
The subject of experiment [10] is NCI-H522.
The subject of experiment [11] is LOX IMVI.
Experiment [12] concerns HCT-116.
Experiment [13] deals with SF-268.
For experiment [14], the system named is 786-0.
Experiment [15] deals with U-251.
Experiment [16] has as its system IGROV-1.
Experiment [17] concerns Hs-578T.
For experiment [18], the system named is SK-MEL-2.
Experiment [19] has as its system HCC 2998.
For experiment [20], the system named is OVCAR-4.

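These data come from cells grown in 96-well plates and exposed to compound for 48 hours at five concentrations. GI50 marks 50% less growth.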 Calls of active or inactive are those of the source. No stated cut-off is given here; in the data, active = GI50 up to about 1.1 µM and inactive = higher.

In the case of `COc1ccc(C2C=C(c3ccccc3)Nc3nnnn32)cc1` (configuration not stated), the GI50 in experiment [1] is 20.3 µM (inactive); in experiment [2] it was 31 µM; in experiment [3], 54 µM (inactive); in [4], 41.3 µM (inactive); in [5], 24.1 µM (inactive); in [6], 20.2 µM (inactive). The GI50 was 47.4 µM (inactive) in experiment [7]; > 100 µM (inactive) in experiment [8]; 24.9 µM (inactive) in [9]; 17.9 µM (inactive) in experiment [10]; 41.7 µM (inactive) in [11]; 13.5 µM (inactive) in experiment [12]. In addition, the GI50 in [13] was 44.9 µM (inactive); in [14] it was 27.5 µM (inactive); in experiment [15], 19.7 µM (inactive); in experiment [16], 82.8 µM (inactive); in experiment [17] it was 40.6 µM (inactive); in [18] it was 38.7 µM (inactive).
`ON(CCc1ccccn1)Cc1ccccc1`: the GI50 in experiment [19] is > 100 µM (inactive); in experiment [20], > 100 µM (inactive); in [1], > 100 µM (inactive); in experiment [2] it was > 100 µM; in experiment [3] it was > 100 µM (inactive); in experiment [4] it was > 100 µM (inactive). Further, the GI50 in experiment [5], in [6], in experiment [7], in experiment [9], in experiment [10] and in experiment [11] was > 100 µM (inactive) each time. Further, the GI50 in experiment [12], in experiment [13], in experiment [14], in experiment [15], in [16] and in experiment [17] was > 100 µM (inactive) each time. In [18], the GI50 is > 100 µM (inactive).
As to `O=C1NC(=S)N/C1=C\c1cccs1`, the GI50 in experiment [19] is > 100 µM (inactive); in [20] it was > 100 µM (inactive); in experiment [1], > 100 µM (inactive); in experiment [2], > 100 µM; in experiment [3], > 100 µM (inactive); in [4], > 100 µM (inactive). The GI50 in experiment [6], in [7], in [9], in experiment [10], in experiment [11] and in experiment [12] was > 100 µM (inactive) each time. In addition, the GI50 in [13], in experiment [14], in experiment [15], in experiment [16], in experiment [17] and in experiment [18] was > 100 µM (inactive) each time.
Consider `O=C(O[C@H](/C=C/c1ccccc1)P1(=O)N(Cc2ccccc2)[C@H]2CCCC[C@@H]2N1Cc1ccccc1)c1ccccc1`, for which the GI50 in [19] was 8.18 µM (inactive); in [20], 1.49 µM (inactive); in experiment [2], 3.22 µM; in [3], 2.17 µM (inactive); in experiment [4] it was 3.7 µM (inactive); in [5], 4.56 µM (inactive). Moreover, the GI50 in experiment [6] was 3.51 µM (inactive); in [7], 3.69 µM (inactive); in experiment [8], 2.95 µM (inactive); in experiment [9], 3.94 µM (inactive); in experiment [10], 3.48 µM (inactive); in experiment [11] it was 3.32 µM (inactive). The GI50 in experiment [12] was 2.79 µM (inactive); in experiment [13] it was 4.12 µM (inactive); in [14], 3.7 µM (inactive); in experiment [15] it was 4.01 µM (inactive); in experiment [16] it was 3.21 µM (inactive); in [17], 9.31 µM (inactive). Besides, the GI50 in [18] was 2.39 µM (inactive).
Turning to `CC1CC/C(=C\c2ccc(F)cc2)C2=C1C(c1ccc(F)cc1)n1c(s/c(=C\c3ccc(Cl)cc3)c1=O)=N2` (configuration not stated), the GI50 in experiment [20] is > 100 µM (inactive); in experiment [1], > 100 µM (inactive); in experiment [2], > 100 µM; in experiment [3], > 100 µM (inactive); in experiment [4] it was > 100 µM (inactive); in [5], > 100 µM (inactive). Also, the GI50 in experiment [6], in [7], in experiment [8], in experiment [11], in experiment [12] and in [13] was > 100 µM (inactive) each time. Also, the GI50 in experiment [14], in experiment [15], in experiment [16], in [17] and in experiment [18] was > 100 µM (inactive) each time.
Take `CC(=O)C1(/N=N/c2ccc(S(N)(=O)=O)cc2)CCOC1=O` (configuration not stated): the GI50 is > 100 µM (inactive) in experiment [20]; > 100 µM (inactive) in experiment [1]; > 100 µM in [2]; > 100 µM (inactive) in experiment [3]; > 100 µM (inactive) in [4]; > 100 µM (inactive) in experiment [5]. For the same molecule, the GI50 in [6] was > 100 µM (inactive); in [7], > 100 µM (inactive); in experiment [8], 64.6 µM (inactive); in experiment [9], > 100 µM (inactive); in experiment [10] it was > 100 µM (inactive); in [11], > 100 µM (inactive). For the same molecule, the GI50 in [12], in [13], in experiment [14], in [15], in experiment [16] and in experiment [17] was > 100 µM (inactive) in each case. Besides, the GI50 in experiment [18] was > 100 µM (inactive).
On to `COC1/C=C(C)/C=C/C(C)/C=C/C(=O)OC(/C(C)=C/C=C(\C)CNC(=O)[C@H](CO)NC=O)C(C)/C=C/C=C/C(OC)CC/C=C(C)/C=C/C1` (some centres not stated), for which the GI50 in [20] is 0.491 µM (active); in [1], 0.158 µM (active); in [2] it was 0.111 µM; in [3], 0.0706 µM (active); in experiment [4] it was 0.0307 µM (active); in experiment [5], 0.0474 µM (active). Further, the GI50 is 0.052 µM (active) in experiment [6]; 0.0399 µM (active) in experiment [7]; 0.0225 µM (active) in experiment [8]; 0.039 µM (active) in experiment [9]; 0.0265 µM (active) in experiment [11]; 0.0318 µM (active) in experiment [12]. Further, the GI50 in experiment [13] was 0.113 µM (active); in [14], 0.0288 µM (active); in experiment [15] it was 0.0673 µM (active); in experiment [16] it was 0.262 µM (active); in experiment [17], > 0.214 µM (active); in [18] it was 0.0341 µM (active).
As for `O=C(O)[C@@H]1[C@H](C(=O)O)[C@H](C(=O)O)C[C@@H]1C(=O)O`, the GI50 was > 100 µM (inactive) in experiment [20]; > 100 µM (inactive) in [1]; > 100 µM in [2]; > 100 µM (inactive) in experiment [3]; > 100 µM (inactive) in [4]; > 100 µM (inactive) in [5]. In addition, the GI50 in [6], in [7], in experiment [9], in experiment [10], in experiment [11] and in experiment [12] was > 100 µM (inactive) throughout. Besides, the GI50 in experiment [13], in experiment [14], in experiment [15], in experiment [16], in experiment [17] and in [18] was > 100 µM (inactive) each time.
`CS/C=C\C(=O)O[C@H]1C[C@@H]2[C@@H](O)c3occ(C)c3C[C@]2(C)[C@@H](C)C1`: the GI50 in experiment [19] was 29.2 µM (inactive); in experiment [20] it was 22.2 µM (inactive); in experiment [1] it was 22.9 µM (inactive); in experiment [2], 30.1 µM; in experiment [3] it was 39.7 µM (inactive); in [5], 24.9 µM (inactive). For the same molecule, the GI50 is 31.9 µM (inactive) in experiment [6]; 22.6 µM (inactive) in experiment [7]; 14.9 µM (inactive) in [8]; 16.4 µM (inactive) in experiment [9]; 23.2 µM (inactive) in experiment [10]; 17.6 µM (inactive) in [11]. For the same molecule, the GI50 in [12] is 17.5 µM (inactive); in experiment [13], 28 µM (inactive); in experiment [14], 16.6 µM (inactive); in experiment [15] it was 2.96 µM (inactive); in experiment [16], 20.4 µM (inactive); in experiment [17], 29.6 µM (inactive).
On to `CC(C)=CCC/C(C)=C/CC/C(C)=C/CC(CO)N(C)CC/C=C(\C)CCC=C(C)C` (configuration not stated), for which the GI50 was 3.04 µM (inactive) in experiment [19]; 8.97 µM (inactive) in experiment [20]; 4.82 µM (inactive) in experiment [1]; 3.78 µM in [2]; 6.64 µM (inactive) in experiment [3]; 4.93 µM (inactive) in experiment [4]. In addition, the GI50 was 11.6 µM (inactive) in experiment [5]; 2.11 µM (inactive) in experiment [6]; 7 µM (inactive) in experiment [7]; 14.2 µM (inactive) in experiment [9]; 2.09 µM (inactive) in experiment [10]; 2.92 µM (inactive) in experiment [11]. In addition, the GI50 in [12] is 2.15 µM (inactive); in [13], 13.3 µM (inactive); in experiment [14], 1.91 µM (inactive); in experiment [15] it was 3.56 µM (inactive); in [16], 3.1 µM (inactive); in experiment [17], 5.31 µM (inactive). Besides, in experiment [18], the GI50 was 14.3 µM (inactive).
Regarding `CC(C)C1=CC2=C(C(=O)C1=O)C13CCCC(C)(C)C1CC2OC3=O` (configuration not stated), the GI50 is 21.3 µM (inactive) in [19]; 18.6 µM (inactive) in experiment [20]; 12.8 µM in experiment [2]; 17.9 µM (inactive) in experiment [3]; 43.5 µM (inactive) in experiment [4]; 19.1 µM (inactive) in experiment [5]. Further, the GI50 in experiment [6] is 22.3 µM (inactive); in [7], 19.2 µM (inactive); in experiment [8], 15.1 µM (inactive); in [9], 16.7 µM (inactive); in [10], 11.3 µM (inactive); in experiment [11], 20.1 µM (inactive). Also, the GI50 in [12] is 18.3 µM (inactive); in experiment [13] it was 22 µM (inactive); in experiment [14] it was 17.9 µM (inactive); in experiment [15] it was 23 µM (inactive); in [16], 17.3 µM (inactive); in experiment [17] it was 34.4 µM (inactive). For the same molecule, the GI50 in experiment [18] was 21.7 µM (inactive).
